28 compounds from patent US9328099B2, “Cyanomethylpyrazole carboxamides as janus kinase inhibitors” (Merck Sharp & Dohme Corp., priority 2011, dated 2016) can be followed below.

Each structure is given as a SMILES string.

For one assay, the target named is JAK1 (Homo sapiens (Human), UniProt P23458). In words: Jak Biochemical HTRF Assay, JAK1. Conditions: HTRF biochemical assay, GST-tagged catalytic domain; top concentration tested […]; read-out: JAK1 IC50. The text has this: (§1) Jak Biochemical HTRF Assay Protocol
(§2) Subsequent reagent additions employed an Agilent Bravo.
Background: In TR-FRET formats the signal depends on donor and acceptor labels being close together.

For another assay, the target named is JAK2 (Homo sapiens (Human), UniProt O60674). In words: Jak Biochemical HTRF Assay, JAK2. Conditions: HTRF biochemical assay, GST-tagged catalytic domain; top concentration tested […].
From the text: as §1, §2

Sequence of JAK1 (P23458 875-1153): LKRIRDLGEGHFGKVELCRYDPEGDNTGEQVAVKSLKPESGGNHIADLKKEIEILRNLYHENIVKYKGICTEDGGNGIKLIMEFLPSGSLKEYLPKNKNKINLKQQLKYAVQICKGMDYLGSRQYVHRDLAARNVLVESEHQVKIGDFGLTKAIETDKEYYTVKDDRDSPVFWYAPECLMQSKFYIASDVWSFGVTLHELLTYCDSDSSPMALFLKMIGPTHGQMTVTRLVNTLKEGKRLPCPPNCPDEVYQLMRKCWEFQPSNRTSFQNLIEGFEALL
Sequence of JAK2 (O60674 849-1124): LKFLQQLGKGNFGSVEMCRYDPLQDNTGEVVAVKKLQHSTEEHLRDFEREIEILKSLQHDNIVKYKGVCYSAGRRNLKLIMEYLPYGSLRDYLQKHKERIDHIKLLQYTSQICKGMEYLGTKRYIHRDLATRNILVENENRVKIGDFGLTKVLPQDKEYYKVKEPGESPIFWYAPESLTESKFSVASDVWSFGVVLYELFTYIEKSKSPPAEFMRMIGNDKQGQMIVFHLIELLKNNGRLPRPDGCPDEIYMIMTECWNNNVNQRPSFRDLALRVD

Regarding `N#CCC1(n2cc(C(N)=O)c(Nc3ccnc(F)c3)n2)CCN(Cc2ccccc2C#N)CC1` [Example 22-72, 1-[1-(2-cyanobenzyl)-4-(cyanomethyl)piperidin-4-yl]-3-[(2-fluoropyridin-4-yl)amino]-1H-pyrazole-4-carboxamide], the IC50 on JAK1 stood at 0.3 nM; on JAK2, 13 nM.
On to `N#CCC1(n2cc(C(N)=O)c(Nc3ccccc3)n2)CN(C(=O)OCc2cccnc2)C1` [Example 30-65, pyridin-3-ylmethyl 3-[4-carbamoyl-3-(phenylamino)-1H-pyrazol-1-yl]-3-(cyanomethyl)azetidine-1-carboxylate], for which the IC50 at JAK1 is 12 nM; against JAK2, 271 nM.
With `CCS(=O)(=O)N1CC(CC#N)(n2cc(C(N)=O)c(Nc3ccccc3)n2)C1` [Example 2-12, 1-[3-(cyanomethyl)-1-(ethylsulfonyl)azetidin-3-yl]-3-(phenylamino)-1H-pyrazole-4-carboxamide], the results for the IC50 on JAK1 and against JAK2 were 115 nM and 404 nM, respectively.
Taken in the same sequence, the figures for `CN1CCN(CCOC(=O)N2CCC(CC#N)(n3cc(C(N)=O)c(Nc4ccccc4)n3)CC2)CC1` [Example 30-43, 2-(4-methylpiperazin-1-yl)ethyl 4-[4-carbamoyl-3-(phenylamino)-1H-pyrazol-1-yl]-4-(cyanomethyl)piperidine-1-carboxylate] were 12 nM and 318 nM.
Consider `N#CCC1(n2cc(C(N)=O)c(Nc3ccc(F)cc3)n2)CCN(c2ccc(F)c(F)c2)CC1` [Example 3-45, 1-[4-(cyanomethyl)-1-(3,4-difluorophenyl)piperidin-4-yl]-3-[(4-fluorophenyl)amino]-1H-pyrazole-4-carboxamide], for which the IC50 turned out to be 2 nM at JAK1 and 70 nM against JAK2.
The matching figures for `N#CCC1(n2cc(C(N)=O)c(Nc3ccccc3)n2)CCN(C(=O)CO)CC1` [Example 34-35, 1-[4-(cyanomethyl)-1-(hydroxyacetyl)piperidin-4-yl]-3-(phenylamino)-1H-pyrazole-4-carboxamide]: 44 nM and 248 nM.
The matching figures for `N#CCC1(n2cc(C(N)=O)c(Nc3ccc(F)cc3)n2)CCN(Cc2ccon2)CC1` [Example 22-45, 1-[4-(cyanomethyl)-1-(isoxazol-3-ylmethyl)piperidin-4-yl]-3-[(4-fluorophenyl)amino]-1H-pyrazole-4-carboxamide]: 2 nM and 34 nM.
The matching figures for `N#CCC1(n2cc(C(N)=O)c(Nc3ccc(F)cc3)n2)CCN(C(=O)OC2COC2)CC1` [Example 30-18, oxetan-3-yl 4-{4-carbamoyl-3-[(4-fluorophenyl)amino]-1H-pyrazol-1-yl}-4-(cyanomethyl)piperidine-1-carboxylate]: 2 nM and 44 nM.
Take `N#CCC1(n2cc(C(N)=O)c(Nc3ccccc3)n2)CCN(S(=O)(=O)c2ccco2)CC1` [Example 37-4, 1-[4-(cyanomethyl)-1-(furan-2-ylsulfonyl)piperidin-4-yl]-3-(phenylamino)-1H-pyrazole-4-carboxamide]: the values for the half-inhibitory concentration (IC50) on JAK1 and at JAK2 were 0.6 nM and 2 nM, respectively.
In the case of `Cc1cc(Cl)ccc1NC(=O)N1CC(CC#N)(n2cc(C(N)=O)c(Nc3ccccc3)n2)C1` [Example 38-14, 1-{1-[(4-chloro-2-methylphenyl)carbamoyl]-3-(cyanomethyl)azetidin-3-yl}-3-(phenylamino)-1H-pyrazole-4-carboxamide], the values for the IC50 at JAK1 and against JAK2 were 25 nM and 334 nM, respectively.
Taken in the same sequence, the figures for `Cc1cccc(NC(=O)N2CC(CC#N)(n3cc(C(N)=O)c(Nc4ccccc4)n3)C2)c1` [Example 38-11, 1-{3-(cyanomethyl)-1-[(3-methylphenyl)carbamoyl]azetidin-3-yl}-3-(phenylamino)-1H-pyrazole-4-carboxamide] were 4 nM and 78 nM.
As for `N#CCC1(n2cc(C(N)=O)c(Nc3cccc(Cn4nnc5ccccc54)c3)n2)CCN(C(=O)OCC(F)(F)F)CC1` [Example 4-4, 2,2,2-trifluoroethyl 4-(3-{[3-(1H-benzotriazol-1-ylmethyl)phenyl]amino}-4-carbamoyl-1H-pyrazol-1-yl)-4-(cyanomethyl)piperidine-1-carboxylate], the half-inhibitory concentration (IC50) at JAK1 turned out to be 0.5 nM; on JAK2 it was 23 nM.
Taken in the same sequence, the figures for `N#CCC1(n2cc(C(N)=O)c(Nc3ccnc(F)c3)n2)CCN(Cc2ccc(Cl)cc2)CC1` [Example 22-71, 1-[1-(4-chlorobenzyl)-4-(cyanomethyl)piperidin-4-yl]-3-[(2-fluoropyridin-4-yl)amino]-1H-pyrazole-4-carboxamide] were 0.1 nM and 4 nM.
The matching figures for `N#CCC1(n2cc(C(N)=O)c(Nc3ccccc3)n2)CCN(C(=O)c2ccccc2-c2ccccc2)CC1` [Example 34-29, 1-[1-(biphenyl-2-ylcarbonyl)-4-(cyanomethyl)piperidin-4-yl]-3-(phenylamino)-1H-pyrazole-4-carboxamide]: 387 nM and 1480 nM.
In the case of `C[C@@H](O)CC(=O)N1CCC(CC#N)(n2cc(C(N)=O)c(Nc3ccnc(F)c3)n2)CC1` [Example 34-62, 1-{4-(cyanomethyl)-1-[(3R)-3-hydroxybutanoyl]piperidin-4-yl}-3-[(2-fluoropyridin-4-yl)amino]-1H-pyrazole-4-carboxamide], the values for the half-inhibitory concentration (IC50) at JAK1 and against JAK2 were 1 nM and 47 nM, respectively.
The matching figures for `N#CCC1(n2cc(C(N)=O)c(Nc3ccnc(F)c3)n2)CCN(Cc2ccccc2Cl)CC1` [Example 22-59, 1-[1-(2-chlorobenzyl)-4-(cyanomethyl)piperidin-4-yl]-3-[(2-fluoropyridin-4-yl)amino]-1H-pyrazole-4-carboxamide]: 0.2 nM and 7 nM.
Taken in the same sequence, the figures for `CC(C)(C)OC(=O)N1CCC(CC#N)(n2cc(C(N)=O)c(Nc3ccc(S(C)(=O)=O)cc3)n2)CC1` [Example 4-1, tert-Butyl 4-(4-carbamoyl-3-{[4-(methylsulfonyl)phenyl]amino}-1H-pyrazol-1-yl)-4-(cyanomethyl)piperidine-1-carboxylate] were 0.1 nM and 1 nM.
Taken in the same sequence, the figures for `N#CCC1(n2cc(C(N)=O)c(Nc3ccnc(F)c3)n2)CCC(Nc2ccc(F)c(F)c2)CC1` (stereo not drawn) [Example 40-36, Cis or trans 1-{1-(cyanomethyl)-4-[(3,4-difluorophenyl)amino]cyclohexyl}-3-[(2-fluoropyridin-4-yl)amino]-1H-pyrazole-4-carboxamide] were 65 nM and above 1500 nM.
On to `N#CCC1(n2cc(C(N)=O)c(Nc3ccc(F)cc3)n2)CCN(C(=O)OCC(F)(F)F)CC1` [Example 30-2, 2,2,2-trifluoroethyl 4-(4-carbamoyl-3-(4-fluorophenylamino)-1H-pyrazol-1-yl)-4-(cyanomethyl)piperidine-1-carboxylate], for which the half-maximal inhibitory concentration (IC50) turned out to be 0.3 nM at JAK1 and 15 nM at JAK2.
For the compound `CC(F)(F)C(=O)N1CCC(CC#N)(n2cc(C(N)=O)c(Nc3ccnc(F)c3)n2)CC1` [Example 34-40, 1-[4-(cyanomethyl)-1-(2,2-difluoropropanoyl)piperidin-4-yl]-3 [(2-fluoropyridin-4-yl)amino]-1H-pyrazole-4-carboxamide], the IC50 was found to be 0.1 nM on JAK1 and 2 nM on JAK2.
For `N#CCC1(n2cc(C(N)=O)c(Nc3ccnc(F)c3)n2)CCC(N2CCc3ccccc32)CC1` (stereo not drawn) [Example 40-30, Cis or trans 1-[1-(cyanomethyl)-4-(2,3-dihydro-1H-indol-1-yl)cyclohexyl]-3-[(2-fluoropyridin-4-yl)amino]-1H-pyrazole-4-carboxamide], the concentration for half-maximal inhibition (IC50) was 326 nM on JAK1 and above 1500 nM against JAK2.
The matching figures for `N#CCC1(n2cc(C(N)=O)c(Nc3ccccc3)n2)CCN(Cc2cccc(O)c2)CC1` [Example 21-11, 1-[4-(cyanomethyl)-1-(3-hydroxybenzyl)piperidin-4-yl]-3-(phenylamino)-1H-pyrazole-4-carboxamide]: 0.3 nM and 6 nM.
In the case of `CC(C)(C)OC(=O)N1CCC(CC#N)(n2cc(C(N)=O)c(Nc3ccc(F)cn3)n2)CC1` [Example 13-4, tert-butyl 4-(4-carbamoyl-3-(5-fluoropyridin-2-ylamino)-1H-pyrazol-1-yl)-4-(cyanomethyl)piperidine-1-carboxylate], the 50% inhibitory concentration (IC50) on JAK1 was determined as 4 nM; on JAK2, 183 nM.
Taken in the same sequence, the figures for `Cc1ccc(CN2CCC(CC#N)(n3cc(C(N)=O)c(Nc4ccccc4)n3)CC2)cc1C` [Example 21-28, 1-[4-(cyanomethyl)-1-(3,4-dimethylbenzyl)piperidin-4-yl]-3-(phenylamino)-1H-pyrazole-4-carboxamide] were 39 nM and 453 nM.
Taken in the same sequence, the figures for `N#CCC1(n2cc(C(N)=O)c(Nc3ccccc3)n2)CN(C(=O)Nc2ccc(F)cc2F)C1` [Example 38-28, 1-{3-(cyanomethyl)-1-[(2,4-difluorophenyl)carbamoyl]azetidin-3-yl}-3-(phenylamino)-1H-pyrazole-4-carboxamide] were 6 nM and 79 nM.
For the compound `CC(C)(C)OC(=O)N1CCC(CC#N)(n2cc(C(N)=O)c(Nc3ccc(C(C)(C)O)cc3)n2)CC1` [Example 9-8, tert-butyl 4-(4-carbamoyl-3-(4-(2-hydroxypropan-2-yl)phenylamino)-1H-pyrazol-1-yl)-4-(cyanomethyl)piperidine-1-carboxylate], the IC50 was 0.3 nM at JAK1 and 3 nM at JAK2.
Take `N#CCC1(n2cc(C(N)=O)c(Nc3ccc(F)cc3)n2)CCN(c2cccnc2)CC1` [Example 3-30, 1-[4-(cyanomethyl)-1-pyridin-3-ylpiperidin-4-yl]-3-[(4-fluorophenyl)amino]-1H-pyrazole-4-carboxamide]: the half-maximal inhibitory concentration (IC50) at JAK1 came out at 0.3 nM; against JAK2, 6 nM.
The matching figures for `CNC(=O)c1cn(C2(CC#N)CCN(C(=O)OC(C)(C)C)CC2)nc1Nc1ccccc1` [Example 1, tert-Butyl 4-(cyanomethyl)-4-[4-(methylcarbamoyl)-3-(phenylamino)-1H-pyrazol-1-yl]piperidine-1-carboxylate]: 67 nM and 1480 nM.

By IC50 is commonly meant the concentration that inhibits the measured activity by half.
